Laboratory results: US12251382B2, “Substituted amino-pyrimidine compound for use in a method for treatment and prevention of multiple sclerosis” (Merck Patent GmbH, priority 2018, dated 2025)

Experiments:
[1] = system: B- and T-cell-mediated EAE mouse models; details: cited from earlier work
[2] = system: human patients suffering from relapsing multiple sclerosis (RMS); experiment: Phase II RMS study: qualified relapse assessment (ARR, relapse-free status); type: in vivo; details: for Qualified relapse rate, adjusted / Qualified relapses, number of relapses: 24 weeks; for Proportion relapse-free / Unadjusted ARR: Week 24
Experimental: The assessing Investigator and central MRI reader were treatment blinded.
Subjects were assessed for MS relapse at visits beginning at Week 4. Relapse was also assessed at any Unscheduled Visit for Neurological Worsening and Relapse Assessment. For subjects in the OLE Period, MS relapse was assessed at all visits. A qualifying relapse was defined as new, worsening or recurrent neurological symptoms attributed to MS that last for at least 24 hours without fever or infection, or adverse reaction to prescribed medication, preceded by a stable or improving neurological status of at least 30 days. The relapse must have been accompanied by new clinical signs (i.e., changes in the neurological examination or an increase in EDSS score).
The protocol specified that all cases of potential relapse were to be objectively confirmed by the Investigator regardless of whether they were identified during a scheduled or unscheduled visit. Any assessments needed to confirm the relapse were to be performed, and details of the relapse were to be documented within the relevant section(s) of the eCRF.
Additional Secondary Endpoints
Analysis of secondary endpoints was based on the mITT analysis set. […] Descriptive statistics for ARR were calculated for each treatment group as the total number of qualified relapses divided by the number of subject-years of observation.
Primary and secondary efficacy endpoints were analysed based on the modified intention-to-treat (mITT) analysis set, consisting of all randomized patients with at least one available baseline and one post-baseline MRI assessment. […] For each endpoint, rate ratio (RR; null-hypothesis RR=1.0) adjusted for baseline disease activity was reported together with associated 95% CI and p-value. The T2 lesion endpoint was analysed similarly. Dose-response relationships between evobrutinib treatment dose and primary and key secondary endpoints were assessed for linear and monotonic trend. The analysis of CFB in cube root of volume of T2 lesions at Week 24 was based on a mixed-effect model for repeated measures, with fixed effects for treatment, week of visit, and treatment-by-week interaction, random effect for subject, and adjustment for baseline cube root of lesion volume. CFB in SF-36 score at Week 24 was analysed similarly. Descriptive statistics were used to further describe the study outcomes.

M1 macrophages = details: in vitro; cited from earlier work

## C=CC(=O)N1CCC(CNc2ncnc(N)c2-c2ccc(Oc3ccccc3)cc2)CC1 [Evobrutinib, 1-(4-(((6-amino-5-(4-phenoxyphenyl)pyrimidin-4-yl)amino)methyl)piperidin-1-yl)prop-2-en-1-one]
[1]
  CNS inflammation, demyelination and disease severity (clinical scoring): potential to reduce CNS inflammation and demyelination and ameliorate disease severity
[2]; 25 mg QD
  Qualified relapse rate, adjusted: 0.47
  Qualified relapses, number of relapses: 12 n
  Proportion relapse-free: 76.0%
  Unadjusted ARR: 0.52
[2]; 25 mg QD, listed as evobrutinib
  Proportion relapse-free: 76%
[2]; 75 mg BID
  Qualified relapse rate, adjusted: 0.07
  Qualified relapses, number of relapses: 2 n
  Proportion relapse-free: 86.8%
  Unadjusted ARR: 0.08
[2]; 75 mg BID, listed as evobrutinib
  Proportion relapse-free: 87%
[2]; 75 mg QD
  Qualified relapse rate, adjusted: 0.10
  Qualified relapses, number of relapses: 3 n
  Proportion relapse-free: 88.2%
  Unadjusted ARR: 0.13
[2]; 75 mg QD, listed as evobrutinib
  Proportion relapse-free: 88%
M1 macrophages
  Effects on macrophages: inhibiting the activation, differentiation and polarisation of M1 macrophages and by promoting the M2 macrophage-phenotype
